Measurements from US4997852A, “Method and composition for achieving cancer chemopreventive and chemotherapeutic activity” (priority 1989, dated 1991).
Like-named read-outs stand apart in the source and are kept apart here.

Legend:
MCF-7 cells [1] = test: growth of MCF-7 cells in GL/HPR-containing media (Table II); format: cell-based, human; settings: 5 days
Text: The values shown are the mean +/- ISE for three experiments counted in triplicates. The numbers in parenthesis indicate the number of free floating (mostly non viable) cells in the media.

[2] = weight gain of rats on CGT and HPR diets (FIG. 4); format: in vivo, female Sprague Dawley rats; settings: prolonged feeding of diets containing CGT and HPR
Experimental: (§2) They were maintained on the diets for approximately 4 mos., and were examined (palpated) for mammary tumors weekly. […] The retinoid (HPR) was first dissolved in 25 ml of a vehicle consisting of ethanol-tricaprylin-6% α-tocopherol, then thoroughly mixed with powdered rat chow.

MCF-7 cells [3] = test: growth of human breast cancer cell line MCF-7, 7 days; format: cell-based; settings: MCF7, 168 h, 0.1 μM HPR, within 7 days, read-out: growth, % of the control
Experimental: When higher doses (2 mmol/kg diet) of HPR were used, growth arrest was followed within 5 to 10 days by 30% regression of the DMBA-induced mammary tumors. Also, HPR (0.1μM) inhibited the […] growth of the human breast cancer cell line (MCF-7) to 50% of the control within 7 days.

rat mammary tumors = test: rat mammary tumor chemoprevention and shrinkage, effective dietary levels; format: in vivo; settings: for dietary level when used individually: alone
[4] = tested on: chemical induction of tumors in rodent skin, mammary glands, lung and liver; settings: cited from earlier work
[5] = weights of rats on diets (Example II, Table III); settings: CGT 2%, RA 1.0 mmol/kg diet
Experimental: (§1) The 13-cis-RA was dissolved in a vehicle consisting of ethanol:tricaprylin:1:4 (v/v) and 4% w/v α-tochopherol. The mixture was added to the meal at the rate of 25 ml/2 kg then stored in the dark at -20° C. […] The same amount of vehicle was also added to the control diet and to the diets containing glucarate. Beginning 5 weeks post DMBA treatment, the rats were examined (palpated) twice every week for mammary tumors. They were also weighed once weekly throughout the 20 week period of the experiment.

beta-glucuronidase = settings: in cells, blood, cited from earlier work
[6] = tested on: DMBA-induced mammary tumors; test: chemoprevention of DMBA-induced rat mammary carcinogenesis (Example II); format: in vivo, female Sprague Dawley rats
Experimental: as §1

[7] = tested on: 7,12-dimethylbenz(a)anthracene-induced mammary tumorigenesis; settings: cited from earlier work
[8] = CGT-supplemented diet vs normal chow diet; cited from earlier work
[9] = tested on: 7,12-dimethylbenz(a)anthracene-induced mammary tumors; test: DMBA-induced mammary tumor formation in female Sprague Dawley rats (Example I); format: in vivo; settings: 1.0% CGT
Experimental: as §2
Protocol: 50 d old female S.D. rats received a single dose 75 mg/kg of
with DMBA, then continued throughout the experiment.

[10] = GL itself; cited from earlier work
MCF-7 cells [11] = test: inhibition of MCF-7 breast cancer cell growth in culture (Example III); format: cell-based, human; settings: for inhibition at 0.01 µM / inhibition at 0.1 µM / inhibition at 1 µM / inhibition at 10 µM: Homo sapiens, MCF7, read-out: inhibition of cell growth
Experimental: The MCF-7 cell line was derived from a hormone-dependent metastatic breast cancer. It has retained several characteristics of differentiated mammary epithelium, Soule et al., J. Natl. Cancer Inst. 51:1409-1413 (1973), and the cells contain estrogen receptors. The MCF-7 cell line used was obtained from the OSU Cell Culture Service laboratory, but originated from the Michigan Cancer Foundation, Detroit, Mich. The MCF-7 cells were seeded at 1×10^3 cells/cm^2 in 35 mm wells containing MEM (Earle base medium) supplemented with MEM non-essential amino acids (1.0 mM), L-glutamic acid (2.0 mM), penicillin and streptomycin (100 ug/ml) and fetal calf serum (10%) as described in Ueda et al., Cancer 46:2203-2206, (1980). The cells are maintained at 37° C. in a humidified atmosphere of 5% CO2 /20% O2 with the growth medium replaced twice a week. The retinoids were dissolved in ethanol and added to the culture medium starting 24 hrs. after seeding. […] Glucarate concentrations varied from 10^-5 to 10^-8 M. Cell counts were done with a Coulter counter and viability of the cells was determined by the trypan blue exclusion method and also by their ability to resume growth after removal of inhibitory agents. Cytotoxicity was evaluated by exposing the MCF-7 cells to equimolar concentrations of the agents and examining viability after 6 days of treatment. All experiments were done in triplicate.
In this experiment series glucarate as the soluble potassium salt and 13-cis-RA were evaluated, alone and in combination, for their ability to inhibit the growth of MCF-7 breast cancer cells in culture.
The log transformed dose refers to the level in μM added to the medium as was varied from […] (0.01) μM to 10^-1 μM. The retinoid vehicle, ethanol, was added to all cultures and all values have been corrected for its slight inhibitory effect (7%).

## CC1=C(/C=C/C(C)=C/C=C/C(C)=C/C(=O)Nc2ccc(O)cc2)C(C)(C)CCC1 [HPR, N-(4-hydroxyphenyl)retinamide, reference compound]
MCF-7 cells [1]; Homo sapiens, MCF7, 120 h, HPR 5 × 10^-8 M, parenthesised, control 11, read-out: free floating cells, % of control
  activity at 0.05 µM: 7%
MCF-7 cells [1]; Homo sapiens, MCF7, 120 h, HPR 5 × 10^-8 M, read-out: viable cells, % of control
  viability at 0.05 µM: 56 ± 4%
[2]
  weight gain of rats: did not affect weight gain
MCF-7 cells [3]
  activity at 0.1 µM: 50%
Rat mammary tumors
  dietary level when used individually: 2.00 mmol/kg
Rat mammary tumors; used alone
  minimum dosage consistent with maximum inhibition of carcinogenesis: 1.0 to 1.5 mmol/kg

## O=C(O)[C@H](O)[C@@H](O)[C@H](O)[C@H](O)CO [calcium gluconate, reference compound]
[4]; equimolar calcium
  effect on tumor induction: no effect

## O=C([O-])[C@@H](O)[C@@H](O)[C@H](O)[C@@H](O)C(=O)[O-].[Ca+2] [CGT, calcium glucarate]
[5]; 0 weeks on diet, control 177.2 +/-10.9
  Weights of rats on diets: 182.2 +/-8.8 gm
[5]; 5 weeks on diet, control 218.3 +/-16.9
  Weights of rats on diets: 224.8 +/-11.6 gm
[5]; 17 weeks on diet, control 247.0 +/-32.2
  Weights of rats on diets: 250.3 +/-14.2 gm
beta-glucuronidase; urine, intestine and liver
  inhibition of beta-glucuronidase: effective as inhibitors of beta-glucuronidase
[6]; 2% CGT, 64 mmol/kg diet (group II)
  effect on tumor incidence compared to control group: did not show any effect on tumor incidence
[4]; dietary, rodent skin, mammary glands, lung, liver
  inhibition of chemical induction of tumors: 50-70%
[7]; 4% CGT diet, by 28 weeks
  tumor induction, % of that in controls: 30%
[7]; chow diet supplemented with CGT
  tumor regression: some tumors on the chow diet supplemented with CGT underwent regression
[8]
  food quantity and weight gain: identical to those on the normal chow diet
[2]
  weight gain of rats: did not affect weight gain
[9]
  inhibition of tumors/rat: 9%
Rat mammary tumors
  dietary level when used individually: 128 mmol/kg

## O=C(O)[C@@H](O)[C@H]1OC(=O)[C@H](O)[C@H]1O [GL, D-glucaro-1,4-lactone]
beta-glucuronidase; urine and intestine, 4-lactone
  inhibition of beta-glucuronidase: potent beta-glucuronidase inhibitor
beta-glucuronidase; urine and intestine
  inhibition of beta-glucuronidase: potent inhibitor of beta-glucuronidase
[10]
  absorption and clearance from the body: too rapidly absorbed and cleared from the body
MCF-7 cells [1]; GL 10^-4 M, control 60400 ± 2147
  No. of viable cells: 49480 ± 3160
MCF-7 cells [1]; Homo sapiens, MCF7, 120 h, GL 10^-3 M, parenthesised, control 11, read-out: free floating cells, % of control
  activity at 1000 µM: 7%
MCF-7 cells [1]; Homo sapiens, MCF7, 120 h, GL 10^-3 M, read-out: viable cells, % of control
  viability at 1000 µM: 54 ± 3%
MCF-7 cells [1]; Homo sapiens, MCF7, 120 h, GL 10^-4 M, parenthesised, control 11, read-out: free floating cells, % of control
  activity at 100 µM: 6%
MCF-7 cells [1]; Homo sapiens, MCF7, 120 h, GL 10^-4 M, read-out: viable cells, % of control
  viability at 100 µM: 82 ± 5%

## 2,4-di-0-acetyl-D-glucaro-1-lactone
beta-glucuronidase; urine, intestine and liver
  inhibition of beta-glucuronidase: effective as inhibitors of beta-glucuronidase

## CC1=C(/C=C/C(C)=C/C=C/C(C)=C\C(=O)O)C(C)(C)CCC1 [13-cis-RA, 13-cis-retinoic acid, reference compound]
[6]; 1.0 mmol/kg diet 13-cis-RA (group III)
  effect on tumor incidence over controls: slight, but insignificant, enhancement of tumor incidence
MCF-7 cells [11]
  inhibition at 0.01 µM: 2%
  inhibition at 0.1 µM: 9.2%
  inhibition at 1 µM: 12%
  inhibition at 10 µM: 52.2%
MCF-7 cells [11]; concentrations above 1.0 μM
  inhibitory activity of retinoid alone: significant inhibitory activity

## O=C(O)[C@@H](O)[C@@H](O)[C@H](O)[C@@H](O)C(=O)[O-].[K+] [GT, potassium hydrogen glucarate]
beta-glucuronidase; urine, intestine and liver
  inhibition of beta-glucuronidase: effective as inhibitors of beta-glucuronidase
MCF-7 cells [11]; 1000-fold range of glucarate, at 13-cis-RA 0.0, 0.1 and 1.0 μM
  increase in inhibition of growth as a function of glucarate concentration: 7-25%
MCF-7 cells [11]
  inhibition at 0.01 µM: 0%
  inhibition at 0.1 µM: 6%
  inhibition at 1 µM: 6%
  inhibition at 10 µM: 11%
